Experimental data published in patent US20060009426A1, “Pharmaceutical compositions comprising calcitriol and a clobetasol propionate” (GALDERMA RESEARCH & DEVELOPMENT, S.N.C., priority 2002, published 2006).

Columns and labels:
mouse ear oedema = assay: Ear oedema in the delayed hypersensitivity model of mice sensitized with a hapten (oxazolone); format: in vivo, Balb/c mice
Protocol: This test represents a reliable model for predicting the immunomodulatory properties of a product in a pathology of Th1 type such as psoriasis.
(§1) 8-week-old Balb/c mice are pretreated on the abdominal skin from day 1 to day 6 using product A or B, or A and B diluted in ethanol. On day 6, the mice are actively sensitized by the topical application of 50 mg of oxazolone (oxa) in ethanol onto the abdominal skin. On day 11, an application of 20 mg of oxa in ethanol is performed on the right ear.
Student's t test was used for the statistical analysis of the results.
The thickness of the ear is measured, using a micrometer, on day 11 (just before the application of oxazolone to the presensitized mice) and after 24 hours, on day 12. The ear oedema is expressed as the difference between the measurement of the thickness of the ear between day 12 and day 11. The values of the thickness of the ear are analyzed statistically using Student's t test.

[1] = test system: auricular ganglionic cells; assay: Count of the auricular ganglionic cells in oxazolone-sensitized mice; format: in vivo, Balb/c mice; settings: dose series, day 12, cells per animal
Protocol: as §1
On day 12, one day after the repeated application of the oxa, the animals were sacrificed by cervical dislocation. The ganglionic cells are collected and combined by experimental group. A cell suspension is prepared and the cells are then counted. The number of cells is expressed per animal.

Compound: CCC(=O)O[C@]1(C(=O)CCl)[C@@H](C)C[C@H]2[C@@H]3CCC4=CC(=O)C=C[C@]4(C)[C@@]3(F)[C@@H](O)C[C@@]21C [product B, clobetasol propionate]
- efficacy on inflammation (ear oedema, FIGS. 1 and 2) (mouse ear oedema; clobetasol propionate alone at 0.01%, topical): moderate efficacy
- effect of topical application on the intensity of mouse ear oedema (FIG. 1) (mouse ear oedema; dose series, topical pretreatment day 1 to day 6, oedema = ear thickness day 12 minus day 11): dose-response effect
- effect on the count of auricular ganglionic cells (FIG. 3) [1]: dose-response effect
